Biological target in the first experiment: not listed separately
In words: Binding affinity towards Thrombin. Details: species or system Homo sapiens.
In general, Ki refers to a measure of affinity in units of concentration, obtained from inhibition or displacement. Compound `COc1cc(C(=O)NCC2CCN(c3ccncc3)CC2)cc(OCCc2ccc(Cl)cc2)c1Cl` displayed a Ki of 3.73 µM.

The compound `CCOc1ccc(C(=O)NCC2CCN(c3ccncc3)CC2)cc1OCCc1ccc(Cl)cc1Cl` registered a Ki of 6.32 µM. This Ki lies about 1.7-fold higher than the previous one.

In the case of `COc1cc(C(=O)NCC2CCN(c3ccncc3)CC2)cc(OCCc2ccc(Cl)cc2Cl)c1OC`, the affinity, expressed as Ki, was 4.12 µM. This Ki is about 1.5-fold lower than that of the compound before.

The compound `CCOc1cc(C(=O)NCC2CCN(c3ccncc3)CC2)cc(OCCc2ccc(Cl)cc2Cl)c1Br` returned a Ki of 36.9 µM.

`O=C(NCC1CCN(c2ccncc2)CC1)c1ccc(Cl)c(OCCc2ccc(Br)cc2)c1` came in with a Ki of 4.73 µM.

The compound `O=C(NCC1CCN(c2ccncc2)CC1)c1ccc(Cl)c(OCCc2ccc(Cl)cc2Cl)c1` returned an inhibition constant (Ki) of 3.06 µM.

With `CNc1ccc(C(=O)NCC2CCN(c3ccncc3)CC2)cc1OCCc1ccc(Cl)cc1Cl`, affinity was put at a Ki of 1.1 µM.

For `COc1cc(C(=O)NCC2CCN(c3ccncc3)CC2)cc(OCCc2ccc(Cl)cc2Cl)c1Br`, the Ki was found to be 2.27 µM.

For `O=C(NCC1CCN(c2ccncc2)CC1)c1ccc(F)c(OCCc2ccc(Cl)cc2)c1`, the Ki was determined as 5.62 µM.

Regarding `NC(=O)c1cc(OCCc2ccc(Cl)cc2Cl)cc(C(=O)NCC2CCN(c3ccncc3)CC2)c1`, the Ki was found to be 5.08 µM. The Ki values of the last two compounds are within 1.5-fold of each other.

Compound `COc1ccc(C(=O)NCC2CCN(c3ccnc(C)c3)CC2)cc1OCCc1ccc(Cl)cc1Cl` came in with a Ki of 20.8 µM.

In turn, `COc1cc(C(=O)NCC2CCN(c3ccncc3)CC2)cc(OCCc2ccc(Cl)cc2Cl)c1Cl` showed an inhibition constant (Ki) of 1.8 µM.

In turn, `O=C(NCC1CCN(c2ccncc2)CC1)c1ccc(Cl)c(OCCc2ccc(Cl)cc2)c1` displayed a Ki of 2.76 µM. Against the preceding compound, the Ki is about 1.5-fold higher.

For the compound `O=C(NCC1CCN(c2ccncc2)CC1)c1cc(OCCc2ccc(Cl)cc2Cl)c2c(c1)OCO2`, the Ki was determined as 1.68 µM.

Consider `Cc1ccc(C(=O)NCC2CCN(c3ccncc3)CC2)cc1OCCc1ccc(Cl)cc1Cl`, for which affinity was put at a Ki of 4.87 µM.

With `O=C(NCC1CCN(c2ccncc2)CC1)c1ccc(C(F)(F)F)c(OCCc2ccc(Cl)cc2Cl)c1`, the affinity, expressed as Ki, was 31.8 µM.

`O=C(NCC1CCN(c2ccncc2)CC1)c1ccc(Cl)c(OCCc2ccc(Cl)cn2)c1` registered a Ki of 5.4 µM. This Ki is about 5.9-fold lower than that of the compound before.

`COc1ccc(C(=O)NCC2CCN(c3ccncc3)CC2)cc1OCCc1ccc(Cl)cc1` showed a Ki of 5.27 µM.

Regarding `COc1cc(C(=O)NCC2CCN(c3ccncc3)CC2)cc(OCCc2ccc(Cl)cc2Cl)c1C`, the affinity corresponds to a Ki of 1.74 µM.

The target in a further experiment is Coagulation factor X (Homo sapiens, UniProt P00742). The experiment in a line: Binding affinity towards human Coagulation factor X.
Coagulation factor X, sequence (P00742 41-179 limits assumed): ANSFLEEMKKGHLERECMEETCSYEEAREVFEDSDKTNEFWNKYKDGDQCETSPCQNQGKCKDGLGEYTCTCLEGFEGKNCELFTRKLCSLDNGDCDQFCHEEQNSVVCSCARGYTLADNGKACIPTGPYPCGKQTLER
Coagulation factor X, sequence (P00742 235-488 limits assumed): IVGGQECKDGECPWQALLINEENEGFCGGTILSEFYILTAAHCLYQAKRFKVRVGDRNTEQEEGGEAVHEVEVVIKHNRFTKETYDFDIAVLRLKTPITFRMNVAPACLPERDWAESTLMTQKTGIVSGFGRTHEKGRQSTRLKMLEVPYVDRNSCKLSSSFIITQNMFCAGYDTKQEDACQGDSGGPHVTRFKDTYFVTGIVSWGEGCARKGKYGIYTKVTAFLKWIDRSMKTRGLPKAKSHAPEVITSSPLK
`COc1ccc(C(=O)Nc2ccc(-c3ccccc3C#N)cc2)cc1OCCc1ccc(Cl)cc1Cl` registered a Ki of 10 µM.

`COc1ccc(C(=O)NCC2CCN(c3ccnc(SC)n3)CC2)cc1OCCc1ccc(Cl)cc1Cl` gave an inhibition constant (Ki) of 10 µM.

`COc1ccc(C(=O)NC2CCN(c3cc[n+]([O-])cc3)CC2)cc1OCCc1ccc(Cl)cc1Cl` yielded an inhibition constant Ki of 1.27 µM.

Turning to `COc1ccc(C(=O)NC2CCN(C3CCOCC3)CC2)cc1OCCc1ccc(Cl)cc1Cl`, the affinity corresponds to a Ki of 2.52 µM. This Ki is about 2-fold higher than that of the compound before.

`COc1cc(N2CCC(CNC(=O)c3ccc(OC)c(OCCc4ccc(Cl)cc4Cl)c3)CC2)nc(OC)n1` had an inhibition constant Ki of 10 µM.

For the compound `CC(=O)Oc1cc(C(=O)NCC2CCN(c3ccncc3)CC2)cc(OCCc2ccc(Cl)cc2Cl)c1Br`, the Ki worked out at 0.285 µM.

As to `CC(=O)Nc1ccc(CCOc2cc(C(=O)NCC3CCN(c4ccncc4)CC3)ccc2Cl)cc1`, the affinity, expressed as Ki, was 10 µM.

Regarding `COc1ccc(C(=O)NCC2CCN(c3cncnc3)CC2)cc1OCCc1ccc(Cl)cc1Cl`, the inhibition constant Ki was 10 µM.

As to `CCN(CC)C(=O)[C@H](CCCN=C(N)N)NC(=O)c1ccc(OC)c(OCCc2ccc(Cl)cc2Cl)c1`, the Ki turned out to be 0.153 µM. Against the preceding compound, the Ki is about 65-fold lower.

Compound `COc1ccc(C(=O)NC2CCN(C3CCCCC3)CC2)cc1OCCc1ccc(Cl)cc1Cl` returned an inhibitory constant (Ki) of 4.03 µM.

The compound `COc1ccc(C(=O)NCC2CCN(c3cc(C)nc(N)n3)CC2)cc1OCCc1ccc(Cl)cc1Cl` showed a Ki of 10 µM. This Ki is about 2.5-fold higher than that of the compound before.

With `O=C(c1cccc(OCCc2ccc(Cl)cc2Cl)c1)N1CCN(Cc2ccncc2)CC1`, the affinity, expressed as Ki, was 2.82 µM. Against the preceding compound, the Ki is about 3.5-fold lower.

In turn, `COc1ccc(N2CCC(CNC(=O)c3ccc(OC)c(OCCc4ccc(Cl)cc4Cl)c3)CC2)cn1` displayed a Ki of 10 µM.

With `COc1ccc(C(=O)NCC2CCN(c3cccc(C#N)c3)CC2)cc1OCCc1ccc(Cl)cc1Cl`, the Ki is 10 µM.

Regarding `COc1ccc(C(=O)NCC2CCN(c3ccc(S(C)(=O)=O)cc3)CC2)cc1OCCc1ccc(Cl)cc1Cl`, the Ki is 10 µM.

With `COc1ccc(C(=O)NCC2CCN(c3ccc(Cl)cc3)CC2)cc1OCCc1ccc(Cl)cc1Cl`, the Ki stood at 10 µM.

In turn, `COc1ccc(C(=O)N2CCN(Cc3ccc(F)cc3)CC2)cc1OCCc1ccc(Cl)cc1Cl` displayed an inhibition constant Ki of 3.93 µM.

As to `CC(=O)Nc1ccc(CCOc2cc(C(=O)NCC3CCN(c4ccncc4)CC3)ccc2F)cc1`, the inhibition constant (Ki) amounted to 10 µM. This Ki is about 2.5-fold higher than that of the compound before.

Compound `COc1ccc(C(=O)NCC2CCN(C3CCNCC3)CC2)cc1OCCc1ccc(Cl)cc1Cl` showed an inhibitory constant (Ki) of 5.76 µM. This Ki is about 1.7-fold lower than that of the compound before.

Consider `COc1ccc(C(=O)NC2CCN(CC(=O)N3CCCC3)CC2)cc1OCCc1ccc(Cl)cc1Cl`, for which the Ki came to 2.57 µM.

For the origin of these results see ChEMBL document CHEMBL1144416, “Structural requirements for factor Xa inhibition by 3-oxybenzamides with neutral P1 substituents: combining X-ray crystallography, 3D-QSAR, and tailored scoring functions” (J Med Chem, 2005).
